Assay results published in PMC7696666, “Epithelial Transfer of the Tyrosine Kinase Inhibitors Erlotinib, Gefitinib, Afatinib, Crizotinib, Sorafenib, Sunitinib, and Dasatinib: Implications for Clinical Resistance” (Cancers, 2020).

What was measured:
WiDr cells = test: Growth inhibition of WiDr cells; type: cell-based; conditions: Homo sapiens, 72 hr exposure, read-out: Concentration leading to 50% growth inhibition
[1] = design: method as in PMID 30544701; conditions: method not given, ref [45], cited from earlier work
CaCo2 monolayer = test: CaCo2 Transwell transport (Papp, efflux ratio); type: in vitro ADME, human; conditions: 20 µM
Experimental: (§1) The Transwell system was developed using the wild type Caco-2 cell line (passage 15–25) cultured in Dulbecco’s […] medium (DMEM) at standard conditions of 37 °C, 5% CO2, and 100% humidity as previously reported. […] To ensure a controlled growth environment the plate was covered with Breathe-Easier cell culture foil during the incubation period. The integrity of the developed monolayer was assessed by TEER before administration of compound solutions and after the final sampling stage.
(§2) The initial concentration of the drug was verified from a 20 µL sample taken immediately from the donor compartment after drug administration (t = 0).
(§3) The permeability coefficient (Papp) represents a measure for the efficiency of transport and was calculated with the following equation: Papp=ΔQ/Δt×V/C0⋅A where ∆Q/∆t = the rate of increase in drug concentration (accumulative mass transport) in the receiver compartment over time (µM/s), V = volume in the receiver compartment (mL), C0 = the initial concentration of drug in the donor compartment (µM), and A = the membrane surface area (cm^2).
(§4) To take into account the slightly nonlinear transfer characteristics of each compound, the rate of increase in drug concentration was determined for each time period and the Papp was then calculated. The average Papp was then determined with units of cm/s × 10^−6 or µm/s.
(§5) The efflux ratio was calculated according to the equation: Efflux ratio=PappB→A/PappA→B.
(§6) Statistical significance was determined using a simple Student’s t-test where a p value of <0.05 was considered significant.

[2] = CaCo2 Transwell transport (Papp, efflux ratio); type: in vitro ADME, human; conditions: human
Experimental: as §1, §2, §3, §4, §5, §6

CaCo2 cells = test: Intracellular accumulation in CaCo2 Transwell cells at the end of the transport period; type: in vitro ADME, human; conditions: A->B incubation
Experimental: (§7) In order to get insight in the barrier role of the CaCo2 model system, we determined the intracellular accumulation of the TKISs at the end of the transport period, in normal monolayers of CaCo2 cells and in several other colon cancer cell lines. At the end of the transport period (both from the B->A and A->B incubations), cells were harvested and intracellular accumulation was determined.
These cells were exposed to 20 μM of a TKI and were harvested after 2 h for determination of TKI concentration with LC-MS-MS. Values are means ± SEM for the number of experiments described in Figure 3, Figure 4, and Figure 5 and from three separate experiments for the monolayer CaCo2 and WiDr cells. […] A->B, mass transport from A to B; B->A, mass transport from B to A. For AFA, CRI, and DAS, no data in WiDr cells were available. […] The bar heights were not read.
In a different set of experiments, the CaCo2 cells were cultured in 6-wells plates as monolayers until semiconfluency. Two other colon cancer cell lines, WiDr and HT29, were cultured similarly. These cells were exposed for 2 h to various TKIs at concentrations varying from 50 nM to 20 µM). […] At the end of the incubation, cells were harvested, as described earlier, and extracted for drug analysis using LC-MS-MS as described above.

[3] = design: method as in PMID 17429625; conditions: ref [32]; cited from earlier work
HT29 cells = test: Intracellular accumulation in HT29 colon cancer cells; type: in vitro ADME; conditions: after 24 h
Experimental: as §7
In a different set of experiments, the CaCo2 cells were cultured in 6-wells plates as monolayers until semiconfluency. Two other colon cancer cell lines, WiDr and HT29, were cultured similarly. […]

Efflux Ratio (Papp B–A / Papp A–B) (CaCo2 monolayer): 6.0 | Total amount transferred apical to basolateral in 3 h (CaCo2 monolayer; A–B, 3 h): 499.3 pmol | Papp basolateral to apical (CaCo2 monolayer; B–A): 20.4 ×10⁻⁶ cm/s | Total amount transferred basolateral to apical in 3 h (CaCo2 monolayer; B–A, 3 h): 13,889 pmol | Efflux Ratio (Papp B–A / Papp A–B) (CaCo2 monolayer; listed as dasatinib): > 6 | efflux ratio at 180 min, 20 µM ([2]; Caco-2, 20 µM, read-out: Efflux Ratio (Papp B–A / Papp A–B)): > 5 | Papp A→B at 180 min, 20 µM ([2]; Caco-2, 20 µM, A–B, read-out: Papp (Apical Basolateral)): 3.4 ± 3.4 ×10⁻⁶ cm/s | Papp B→A at 180 min, 20 µM ([2]; Caco-2, 20 µM, B–A, read-out: Papp (Basolateral Apical)): 20.4 ± 13.5 ×10⁻⁶ cm/s | Intracellular accumulation at the end of the transfer period (A->B) (CaCo2 cells): 1.1 pmol/μg protein | Intracellular accumulation in HT29 cells (HT29 cells): 0.14 pmol/μg protein
Compound: Cc1nc(Nc2ncc(C(=O)Nc3c(C)cccc3Cl)s2)cc(N2CCN(CCO)CC2)n1 [Dasatinib, dasatinib]
IC50 (WiDr cells): 60 nM | Log P [1]: 2.24 | Log D (pH 5.5) ([1]; pH 5.5): −0.44 | Log D (pH 7.5) ([1]; pH 7.5): 2.17 | Bioavailability (animal) [3]: 14–27 [32] (animal) %
